Laboratory results taken from article PMC9021288 (Nature Communications, 2022).
Read-outs that look alike come from different tables or passages of the source.

Tested on: TA98, TA100, TA102, TA1535, TA1537
Description: Safety studies were performed by commercial services using their standard protocols. […] Genotoxicity was investigated using the Ames test (Bacterial Reverse Mutation Assay) (Covance Laboratories Ltd, North Yorkshire, England). In vitro mammalian cell micronucleus screening assay was studied in human peripheral blood lymphocytes (BioReliance Corporation, Rockville, USA). Cardiotoxicity was determined against the hERG channel in an automated patch clamp assay using the Qpatch or against the hNaV 1.5, hKV 1.5 and hCaV 1.2 using a manual patch-clamp technique (Metrion Biosciences, Cambridge, UK). Cytotoxicity in human and rat primary hepatocytes was assessed using the CellTiter-Blue assay performed by commercial services (KaLy-Cell). The viability of HepG2 cells was monitored through the addition of 1 mM resazurin. Following 6 h incubation, the relative amount of reduced resazurin was detected in a fluorimeter and compared to the assay controls (vehicle: 0.1% DMSO and positive control: 10 µM puromycin).

In the case of C[C@@H](CNC(=O)[C@H](O)C(C)(C)CO)NC(=O)c1cc(F)c(F)cc1F [MMV693183], the “Fold Increase” value (TA102, +S-9, 1600 ug/plate) is reported as 1.1, the “Mean (Revertant Numbers Per Plate)” value (TA102, +S-9, 1600 ug/plate) is reported as 257 and the “Fold Increase” value (TA102, +S-9, 5000 ug/plate) is reported as 0.8. The “Mean (Revertant Numbers Per Plate)” value (TA102, +S-9, 5000 ug/plate) was 184.3, the “Fold Increase” value (TA102, -S-9, 5 ug/plate) was 1 and the “Mean (Revertant Numbers Per Plate)” value (TA102, -S-9, 5 ug/plate) was 245.7. For the same compound, the “Fold Increase” value (TA102, -S-9, 16 ug/plate) was 1.1, the “Mean (Revertant Numbers Per Plate)” value (TA102, -S-9, 16 ug/plate) was 251.3 and the “Fold Increase” value (TA102, -S-9, 50 ug/plate) was 1.1. For the same compound, the “Mean (Revertant Numbers Per Plate)” value (TA102, -S-9, 50 ug/plate) was 256.3, the “Fold Increase” value (TA102, -S-9, 160 ug/plate) was 1 and the “Mean (Revertant Numbers Per Plate)” value (TA102, -S-9, 160 ug/plate) was 240. For the same compound, the “Fold Increase” value (TA102, -S-9, 500 ug/plate) was 0.9, the “Mean (Revertant Numbers Per Plate)” value (TA102, -S-9, 500 ug/plate) was 202.7 and the “Fold Increase” value (TA102, -S-9, 1600 ug/plate) was 0.8. For the same compound, the “Mean (Revertant Numbers Per Plate)” value (TA102, -S-9, 1600 ug/plate) was 181.7, the “Fold Increase” value (TA102, -S-9, 5000 ug/plate) was 0.1 and the “Mean (Revertant Numbers Per Plate)” value (TA102, -S-9, 5000 ug/plate) was 26.7. For the same compound, the “Fold Increase” value (TA1535, +S-9, 5 ug/plate) was 0.9, the “Mean (Revertant Numbers Per Plate)” value (TA1535, +S-9, 5 ug/plate) was 20.7 and the “Fold Increase” value (TA1535, +S-9, 16 ug/plate) was 0.8. The “Mean (Revertant Numbers Per Plate)” value (TA1535, +S-9, 16 ug/plate) was 19.3, the “Fold Increase” value (TA1535, +S-9, 50 ug/plate) was 1 and the “Mean (Revertant Numbers Per Plate)” value (TA1535, +S-9, 50 ug/plate) was 23.3. The “Fold Increase” value (TA1535, +S-9, 160 ug/plate) was 1.1, the “Mean (Revertant Numbers Per Plate)” value (TA1535, +S-9, 160 ug/plate) was 25 and the “Fold Increase” value (TA1535, +S-9, 500 ug/plate) was 0.8. For the same compound, the “Mean (Revertant Numbers Per Plate)” value (TA1535, +S-9, 500 ug/plate) was 17.7, the “Fold Increase” value (TA1535, +S-9, 1600 ug/plate) was 1 and the “Mean (Revertant Numbers Per Plate)” value (TA1535, +S-9, 1600 ug/plate) was 24. The “Fold Increase” value (TA1535, +S-9, 5000 ug/plate) was 1, the “Mean (Revertant Numbers Per Plate)” value (TA1535, +S-9, 5000 ug/plate) was 22.7 and the “Fold Increase” value (TA1535, -S-9, 5 ug/plate) was 1.4. The “Mean (Revertant Numbers Per Plate)” value (TA1535, -S-9, 5 ug/plate) was 35, the “Fold Increase” value (TA1535, -S-9, 16 ug/plate) was 0.8 and the “Mean (Revertant Numbers Per Plate)” value (TA1535, -S-9, 16 ug/plate) was 20.7. The “Fold Increase” value (TA1535, -S-9, 50 ug/plate) was 0.9, the “Mean (Revertant Numbers Per Plate)” value (TA1535, -S-9, 50 ug/plate) was 22 and the “Fold Increase” value (TA1535, -S-9, 160 ug/plate) was 0.9. The “Mean (Revertant Numbers Per Plate)” value (TA1535, -S-9, 160 ug/plate) was 24, the “Fold Increase” value (TA1535, -S-9, 500 ug/plate) was 1.2 and the “Mean (Revertant Numbers Per Plate)” value (TA1535, -S-9, 500 ug/plate) was 29.3. For the same compound, the “Fold Increase” value (TA1535, -S-9, 1600 ug/plate) was 1, the “Mean (Revertant Numbers Per Plate)” value (TA1535, -S-9, 1600 ug/plate) was 26 and the “Fold Increase” value (TA1535, -S-9, 5000 ug/plate) was 0.9. For the same compound, the “Mean (Revertant Numbers Per Plate)” value (TA1535, -S-9, 5000 ug/plate) was 22, the “difference in revertant numbers vs control” value (TA1535, TA1537) was less than 3 fold and the “Fold Increase” value (TA1537, +S-9, 5 ug/plate) was 1.4. The “Mean (Revertant Numbers Per Plate)” value (TA1537, +S-9, 5 ug/plate) was 10, the “Fold Increase” value (TA1537, +S-9, 16 ug/plate) was 1.1 and the “Mean (Revertant Numbers Per Plate)” value (TA1537, +S-9, 16 ug/plate) was 7.7. The “Fold Increase” value (TA1537, +S-9, 50 ug/plate) was 1.9, the “Mean (Revertant Numbers Per Plate)” value (TA1537, +S-9, 50 ug/plate) was 13.3 and the “Fold Increase” value (TA1537, +S-9, 160 ug/plate) was 1. For the same compound, the “Mean (Revertant Numbers Per Plate)” value (TA1537, +S-9, 160 ug/plate) was 7.3, the “Fold Increase” value (TA1537, +S-9, 500 ug/plate) was 1.6 and the “Mean (Revertant Numbers Per Plate)” value (TA1537, +S-9, 500 ug/plate) was 11. For the same compound, the “Fold Increase” value (TA1537, +S-9, 1600 ug/plate) was 1.4, the “Mean (Revertant Numbers Per Plate)” value (TA1537, +S-9, 1600 ug/plate) was 9.7 and the “Fold Increase” value (TA1537, +S-9, 5000 ug/plate) was 1. For the same compound, the “Mean (Revertant Numbers Per Plate)” value (TA1537, +S-9, 5000 ug/plate) was 7.3, the “Fold Increase” value (TA1537, -S-9, 5 ug/plate) was 1.1 and the “Mean (Revertant Numbers Per Plate)” value (TA1537, -S-9, 5 ug/plate) was 7.7. For the same compound, the “Fold Increase” value (TA1537, -S-9, 16 ug/plate) was 0.9, the “Mean (Revertant Numbers Per Plate)” value (TA1537, -S-9, 16 ug/plate) was 6.3 and the “Fold Increase” value (TA1537, -S-9, 50 ug/plate) was 1. For the same compound, the “Mean (Revertant Numbers Per Plate)” value (TA1537, -S-9, 50 ug/plate) was 6.7, the “Fold Increase” value (TA1537, -S-9, 160 ug/plate) was 0.8 and the “Mean (Revertant Numbers Per Plate)” value (TA1537, -S-9, 160 ug/plate) was 5.3. The “Fold Increase” value (TA1537, -S-9, 500 ug/plate) was 1, the “Mean (Revertant Numbers Per Plate)” value (TA1537, -S-9, 500 ug/plate) was 7.3 and the “Fold Increase” value (TA1537, -S-9, 1600 ug/plate) was 0.9. The “Mean (Revertant Numbers Per Plate)” value (TA1537, -S-9, 1600 ug/plate) was 6, the “Fold Increase” value (TA1537, -S-9, 5000 ug/plate) was 0.6 and the “Mean (Revertant Numbers Per Plate)” value (TA1537, -S-9, 5000 ug/plate) was 4.
